We go through 3 compounds from patent US9274101B2 (BIOLOG, Inc., priority 2001, dated 2016).

Holding throughout (format): cell-based, human
For experiment [1], the system named is DMSO-differentiated HL-60 cells. Kind of experiment: Energy use by DMSO-differentiated HL-60 cells. The note with it: for activity at 30 µM / activity at 100 µM / activity at 330 µM / activity at 1000 µM / activity at 3300 µM / activity at 10000 µM / activity at 15000 µM / activity at 20000 µM: Homo sapiens, HL-60, 24 h, read-out: Energy Use by DMSO-Differentiated HL-60 Cells. How it is done:
In this Example, methods for testing in vitro-differentiated cells for their ability to use multiple energy sources are described. Prior to differentiation, HL-60 cells were cultured as described in Example 27. DMSO-induced differentiation (Odani et al., Res. Commun. Mol. Pathol. Pharmacol. 108:381-391 [2000]; and Yamaguchi et al., Biol. Pharm. Bull. 20:943-947 [1997]) was accomplished by incubation of the cells in the presence of 1.25% DMSO for 3 days.
After washing, HL-60 cells were resuspended in DME-R. An aliquot of the cell suspension was counted by trypan blue exclusion and the cell density was adjusted to 6.67×10^5/mL. Fifty μL of DME-R were added to each well of the appropriate number of half area, 96-well plates, followed by 25 μL of the appropriate dilution of each test energy source. Stocks of 133 mM of each test chemical were prepared in tissue culture grade water, sterile filtered, and dilutions were prepared in a master plate so that, upon dilution into a half-area 96-well microtiter plate to a total well volume of 150 μL, the final concentrations would be 0.033 to 20 mM. Negative control wells received 25 μL of tissue culture grade water. The cells were plated at a volume of 75 μL/well, giving a final cell density of 5×10^4/well. For each plate containing energy sources and cells, a second, control plate containing only energy sources was prepared with the same total volume of liquid (148 μL/well). Plates were incubated at 5% CO2, 90-100% humidity, and 37° C. for 24 hours prior to addition of the MTS/MPMS calorimetric reagent (7.5 μL/well). The color formed in each well 24 hours after addition of the colorimetric reagent, was measured with a plate reader at 490 nm with a reference wavelength of 650 nm. OD values from the control plate were subtracted from the OD values obtained with cells prior to normalizing the data to % negative control (cells without added energy source).

The next experiment deals with HepG2 cells. Kind of experiment: HepG2 cells on flat bottom plastic wells, energy sources at a range of concentrations. Particulars: for activity at 30 µM / activity at 100 µM / activity at 330 µM / activity at 1000 µM / activity at 3300 µM / activity at 10000 µM / activity at 15000 µM / activity at 20000 µM: Homo sapiens, HepG2, 72 h, read-out: HepG2 Cells Responses After 72 hours in Culture and a 4 hour Color Development Period. How it is done: In this Example, methods for testing adherent cells for their ability to use multiple carbon sources are described. The human hepatocellular carcinoma cell line known as HepG2 (Knowles et al., Science, 209:497-499 [1980]) was chosen for this experiment. However, this application is not intended to be limited to the use of HepG2 cells, hepatocytes, carcinoma cells or even human cells.
HepG2 cells were grown in Falcon tissue culture flasks with vented tops. The culture medium used was Minimal Essential medium (MEM, Invitrogen 11095) with 1 g/L glucose, 2 mM L-glutamine, 2.2 g/L sodium bicarbonate, 10 mg/L phenol red, and supplemented with 0.1 mM Nonessential Amino Acids, 1 mM sodium pyruvate, 50 U/mL penicillin, 50 μg/mL streptomycin, and 10% (v/v) heat inactivated fetal bovine serum (HI FBS, Invitrogen 16140). The cells were seeded at 2×10^4/cm^2 and used 3 days after initiation of culture. During all incubations, the cells were kept in an atmosphere of 5% CO2, 90-100% humidity, and 37° C. Cells were harvested by trypsinization for 3 minutes in 0.25% trypsin-1 mM EDTA and resuspended in an equal volume of culture medium. A viable cell count was obtained by trypan blue exclusion and an appropriate volume of the cell suspension (to have 33% more viable cells than was sufficient for the experiment) was placed in a polypropylene centrifuge tube. Cells were pelleted by centrifugation at 350×g for 10 minutes at room temperature, resuspended in Dulbecco's Phosphate Buffered Saline (D-PBS, Invitrogen 14040) and centrifuged a second time. Cells were then resuspended to two-thirds the final volume needed in Dulbecco' ? s Modified Eagle's Medium (DME, Sigma D5030) containing 10% HI FBS and penicillin-streptomycin but without glucose, L-glutamine, sodium pyruvate, and phenol red. An aliquot was counted by trypan blue exclusion and the cell density was adjusted to 1.28×10^5/mL. Cells were plated in 100 μL/well in wells of standard, 96-well plates (4×10^4 cells/cm^2) and allowed to adhere overnight prior to addition of test chemicals.
For assay, the culture medium was aspirated, the wells were washed once with D-PBS and 170 μL of DME were added to each well, followed by 30 μL of the appropriate dilution of each test energy source. Stocks of 133 mM of each test chemical were prepared in tissue culture grade water, sterile filtered, and dilutions were prepared in a master plate so that, upon dilution into a regular 96-well MICROPLATE a total well volume of 200 μL, the final concentrations would be 0.033 to 20 mM. Negative control wells received 30 μL of tissue culture grade water. For each plate containing energy sources and cells, a second, control plate containing only energy sources was prepared. Plates were incubated at 5% CO2, 90-100% humidity, and 37° C. for 48 to 72 hours prior to addition of the MTS/PMS colorometric reagent (10 μL/well). The color formed in each well 4-24 hours after addition of the calorimetric reagent, was measured with a plate reader at 490 nm with a reference wavelength of 650 nm. OD values from the control plate were subtracted from the OD values obtained with cells prior to normalizing the data to % negative control (cells without added energy source).

In the next experiment the test system is HL-60 cells. Kind of experiment: Effect of 10 mM citric acid on HL-60 energy utilization. The note with it: for Effect of 10 mM Citric Acid on HL-60 Energy Utilization: negative control without energy sources and without citric acid.
Setting [2] is: energy source 0.03 mM with 10 mM citric acid.
Setting [3] is: energy source 0.10 mM with 10 mM citric acid.
[4] abbreviates: energy source 0.33 mM with 10 mM citric acid.
Where [5] appears, read: energy source 1.00 mM with 10 mM citric acid.
Setting [6] is: energy source 3.3 mM with 10 mM citric acid.
[7] abbreviates: energy source 10 mM with 10 mM citric acid.
Setting [8] is: energy source 15 mM with 10 mM citric acid.
Setting [9] is: energy source 20 mM with 10 mM citric acid.

Regarding `NC(=O)CC[C@H](N)C(=O)O` [L-glutamine], the figures for the activity at 30 µM (in experiment [1] (Conc. 0.03 mM); with HepG2 cells (Conc. 0.03 mM)) were 110% and 103%, respectively. Further, the activity at 100 µM in experiment [1] (Conc. 0.10 mM) was determined as 149%; in the experiment with HepG2 cells (Conc. 0.10 mM), 114%. Also, the results for the activity at 330 µM (in experiment [1] (Conc. 0.33 mM); in the experiment on HepG2 cells (Conc. 0.33 mM)) were 154% and 205%, respectively. In addition, the activity at 1000 µM turned out to be 156% in experiment [1] (Conc. 1.00 mM) and 218% in the experiment with HepG2 cells (Conc. 1.00 mM). For the same compound, the activity at 3300 µM is 172% in experiment [1] (Conc. 3.3 mM) and 260% in the experiment with HepG2 cells (Conc. 3.3 mM). Also, the figures for the activity at 10000 µM (in experiment [1] (Conc. 10 mM); in the experiment with HepG2 cells (Conc. 10 mM)) were 157% and 224%, respectively. The activity at 15000 µM in experiment [1] (Conc. 15 mM) turned out to be 121%; in the experiment with HepG2 cells (Conc. 15 mM) it was 146%. The activity at 20000 µM in experiment [1] (Conc. 20 mM) is 109%; in the experiment with HepG2 cells (Conc. 20 mM) it was 111%. Moreover, the response in words entry in the experiment on HepG2 cells (0.033 to 20 mM, 72 hour culture) is reported as “dose dependent response in the 72 hour culture up to 3.3 mM”. Further, the “cell activity in the presence of citric acid, in words” value with HL-60 cells (10 mM citric acid) is recorded as “able to restore cell activity to a level equal or greater than the negative control”. The “Effect of 10 mM Citric Acid on HL-60 Energy Utilization” value (“Effect of 10 mM Citric Acid” for short) is 15.0 % of negative control with HL-60 cells (setting [2]); 57.8 % of negative control in the experiment with HL-60 cells (setting [3]); 57.1 % of negative control in the experiment with HL-60 cells (setting [4]); 108.0 % of negative control with HL-60 cells (setting [5]); 135.0 % of negative control in the experiment with HL-60 cells (setting [6]); 125.3 % of negative control in the experiment with HL-60 cells (setting [7]). Moreover, the “Effect of 10 mM Citric Acid” value is listed as 107.3 % of negative control in the experiment with HL-60 cells (setting [8]) and 86.7 % of negative control in the experiment on HL-60 cells (setting [9]).

`O=C(O)[C@@H]1C[C@@H](O)CN1` [hydroxy L-proline]: the “Energy Use by DMSO-Differentiated HL-60 Cells” value in experiment [1] (Conc. 0.03 mM) is given as 102.8 % of negative control; in experiment [1] (Conc. 0.10 mM), 110.5 % of negative control; in experiment [1] (Conc. 0.33 mM) it was 120.5 % of negative control; in experiment [1] (Conc. 1.00 mM) it was 121.9 % of negative control; in experiment [1] (Conc. 3.3 mM) it was 129.0 % of negative control; in experiment [1] (Conc. 10 mM) it was 126.9 % of negative control. Besides, the “Energy Use by DMSO-Differentiated HL-60 Cells” value in experiment [1] (Conc. 15 mM) was 109.0 % of negative control; in experiment [1] (Conc. 20 mM) it was 92.0 % of negative control. For the same compound, the “HepG2 Cells Responses After 72 hours in Culture and a 4 hour Color Development Period” value was 97.0 % of negative control in the experiment with HepG2 cells (Conc. 0.03 mM); 139.9 % of negative control in the experiment with HepG2 cells (Conc. 0.10 mM); 162.2 % of negative control in the experiment with HepG2 cells (Conc. 0.33 mM); 140.5 % of negative control with HepG2 cells (Conc. 1.00 mM); 126.8 % of negative control in the experiment with HepG2 cells (Conc. 3.3 mM); 123.1 % of negative control in the experiment with HepG2 cells (Conc. 10 mM). Also, the “HepG2 Cells Responses After 72 hours in Culture and a 4 hour Color Development Period” value in the experiment on HepG2 cells (Conc. 15 mM) is 101.3 % of negative control; in the experiment with HepG2 cells (Conc. 20 mM), 62.8 % of negative control. Besides, the “Effect of 10 mM Citric Acid” value with HL-60 cells (setting [2]) is listed as 7.6 % of negative control; in the experiment with HL-60 cells (setting [3]), 17.7 % of negative control; in the experiment with HL-60 cells (setting [4]), 25.0 % of negative control; in the experiment on HL-60 cells (setting [5]), 37.5 % of negative control; with HL-60 cells (setting [6]) it was 49.0 % of negative control; with HL-60 cells (setting [7]) it was 85.0 % of negative control. Besides, the “Effect of 10 mM Citric Acid” value is 87.4 % of negative control with HL-60 cells (setting [8]) and 68.8 % of negative control in the experiment with HL-60 cells (setting [9]).

In the case of `N[C@@H](Cc1c[nH]cn1)C(=O)O` [L-histidine], the activity at 30 µM in experiment [1] (Conc. 0.03 mM) turned out to be 119%; in the experiment with HepG2 cells (Conc. 0.03 mM), 125%. Moreover, the activity at 100 µM was found to be 123% in experiment [1] (Conc. 0.10 mM) and 142% in the experiment with HepG2 cells (Conc. 0.10 mM). Also, the activity at 330 µM is 128% in experiment [1] (Conc. 0.33 mM) and 173% in the experiment on HepG2 cells (Conc. 0.33 mM). Further, the activity at 1000 µM in experiment [1] (Conc. 1.00 mM) turned out to be 157%; with HepG2 cells (Conc. 1.00 mM), 148%. In addition, the activity at 3300 µM in experiment [1] (Conc. 3.3 mM) was found to be 172%; in the experiment with HepG2 cells (Conc. 3.3 mM) it was 180%. The activity at 10000 µM in experiment [1] (Conc. 10 mM) was 171%; in the experiment with HepG2 cells (Conc. 10 mM), 210%. Further, the activity at 15000 µM in experiment [1] (Conc. 15 mM) is 140%; in the experiment with HepG2 cells (Conc. 15 mM) it was 195%. The values for the activity at 20000 µM (in experiment [1] (Conc. 20 mM); in the experiment on HepG2 cells (Conc. 20 mM)) were 114% and 72.1%, respectively.
